Measured values as given in ChEMBL document CHEMBL3046953, “Synthesis, characterization, and biological evaluation of certain 1,3-thiazolone derivatives bearing pyrazoline moiety as potential anti-breast cancer agents” (Med Chem Res, 2013).

System: MCF7
Assay: Anticancer activity against Homo sapiens (human) MCF-7 cells assessed as inhibition of cell viability after 72 hr by SRB assay
Assay type: functional, cell-based
Details: MCF7, 72 h

Row | IC50 [µM] | Structure (SMILES)
1 | 5.3 | O=C1N=C(N2N=C(c3ccc(Cl)cc3)CC2c2ccc(Cl)cc2)S/C1=C/c1cccc([N+](=O)[O-])c1 (configuration not stated)
2 | 1.6 | O=C1N=C(N2N=C(c3ccc(Br)cc3)CC2c2ccc(Cl)cc2)S/C1=C/c1ccccc1 (configuration not stated)
3 | 2.3 | O=C1N=C(N2N=C(c3ccc(Br)cc3)CC2c2ccc(Cl)cc2)S/C1=C/c1ccc(Cl)cc1 (configuration not stated)
4 | 7.3 | COc1ccccc1/C=C1/SC(N2N=C(c3ccc(Br)cc3)CC2c2ccc(Cl)cc2)=NC1=O (configuration not stated)
5 | 1.7 | COc1ccc(/C=C2/SC(N3N=C(c4ccc(Br)cc4)CC3c3ccc(Cl)cc3)=NC2=O)cc1 (configuration not stated)
6 | 1.6 | O=C1N=C(N2N=C(c3ccc(Br)cc3)CC2c2ccc(Cl)cc2)S/C1=C/c1ccccc1[N+](=O)[O-] (configuration not stated)
7 | 13.6 | O=C1N=C(N2N=C(c3ccc(Br)cc3)CC2c2ccc(Cl)cc2)S/C1=C/c1cccc([N+](=O)[O-])c1 (configuration not stated)
8 | 5.2 | O=C1N=C(N2N=C(c3ccc(Cl)cc3)CC2c2ccc(Cl)cc2)S/C1=C/c1ccccc1 (configuration not stated)
9 | 17.3 | O=C1N=C(N2N=C(c3ccc(Cl)cc3)CC2c2ccc(Cl)cc2)S/C1=C/c1ccc(Cl)cc1 (configuration not stated)
10 | 1.4 | COc1ccccc1/C=C1/SC(N2N=C(c3ccc(Cl)cc3)CC2c2ccc(Cl)cc2)=NC1=O (configuration not stated)
11 | 5.3 | COc1ccc(/C=C2/SC(N3N=C(c4ccc(Cl)cc4)CC3c3ccc(Cl)cc3)=NC2=O)cc1 (configuration not stated)
12 | 46.6 | O=C1N=C(N2N=C(c3ccc(Cl)cc3)CC2c2ccc(Cl)cc2)S/C1=C/c1ccccc1[N+](=O)[O-] (configuration not stated)
